Data on 9 molecules can be found in US9335332B2, “Nicotinamide phosphoribosyltransferase (NMPRTase) inhibitor for glioma therapy” (COUNCIL OF SCIENTIFIC AND INDUSTRIAL RESEARCH, priority 2010, dated 2016).

Bounds are passed on as bounds.

For test [1], the target named is T1, NMPRTase (Homo sapiens, UniProt P43490).
T1 construct: To prepare cytoplasmic extract, as source of NMPRTase, logarithmically growing U87 glioblastoma cells were collected; endogenous in cells; host or cells: U87 glioblastoma cells (cytoplasmic extract)
To be noted: reference compounds, Table 1A; cited from earlier work.

In test [2] the target is T1, NMPRTase. The test can be described thus: NMPRTase assay: conversion of 14[C]-nicotinamide to 14[C]-NAD by U87 cell extract. Format: biochemical. To be noted: 14[C]-NAD formed, FIG. 2C, 3A and 3B. As for the experimental part: In accordance with the inventive steps, the measurement of NMPRTase activity was carried. To prepare cytoplasmic extract, as source of NMPRTase, logarithmically growing U87 glioblastoma cells were collected by centrifugation and washed three times with Ca^2+, Mg^2+ free PBS. The cells pellet (2 to 3×10^7 cells) was suspended and lysed in 1 mL of 0.01 M NaH2PO4 (pH 7.4) by one round of freezing and slow thawing. The clear supernatant was recovered on ice after centrifugation at 23,000×g at 0° C. for 90 mins. […] of 1% protamine sulfate were added per ml of supernatant and incubated for 15 min on ice, followed by centrifugation at 23,000×g at 0° C. for 30 mins. The final supernatant was stored in small aliquots at −80° C. The NMPRTase activity was determined in 0.5 ml of reaction solution consisting of 5 mM MgCl2, 2 mM ATP, 0.5 mM phosphoribosyl PPI (pyrophosphate), 0.1 mM 14[C]-nicotinamide (specific activity: 50 mCi/mmol; American Radiolabeled Chemicals, Inc.) and 50 mM Tris (pH 8.8) at 37° C. […] The precipitate was removed by centrifugation at 2500×g at 4° C. for 10 min and the supernatant was stored at −20° C. The 14[C]-labeled components in the cell extracts were separated and identified using thin-layer chromatography (cellulose/1 M ammonium sulphate:ethanol (3:7). The chromatograms were run and exposed to imaging plates (Fuji) read using Phosphoimger (Fuji) the 14[C]-labeled NAD was quantified using Alpha Innotec software.
In accordance with the inventive steps, selected compounds were tested for inhibition of NMPRTase activity. Measurement of the ability of NMPRTase to convert 14[C]-nicotinamide to 14[C]-NAD was carried out. Most of the glioblastoma tissues have elevated levels of transcript and protein of PBEF1/NMPRTase. To prepare NMPRTase enzyme, firstly a panel of glioma derived cell lines was tested for NMPRTase transcript and protein levels.

The subject of test [3] is glioma derived cell line U87. The test is described as follows: MTT viability assay, U87 cells. The test is classed as cell-based. To be noted: Homo sapiens, U-87 MG, MTT at 48 hrs after addition of compounds. On the procedure: Viability was measured by MTT assay at 48 hrs after addition of indicated compounds to U87 cells. The assays were carried out in triplicates and the mean value for each time point was used to generate the graph.
In accordance with the inventive steps, MTT assay was performed (Das, S.; El-Deiry, W. S.; Somasundaram, K. Efficient growth inhibition of HPV 16 E6-expressing cells by an adenovirus-expressing p53 homologue p73beta. Oncogene 2003, 22, 8394-402). A total of 1.5×10^3 cells/well were plated in a 96-well plate. After 24 h of plating, the cells were treated with indicated amounts of compounds. A measure of 20 μL (5 mg/mL) of MTT was added to each well 48 hrs after the addition of the compounds. MTT is a tetrazolium salt that is converted by living cells into purple formazan crystals. The medium was removed from the wells 3 hrs after MTT addition and 200 μL of DMSO (Dimethyl sulfoxide) was added to dissolve the formazan crystals, and then the absorbance was measured at 550 nm in an ELISA reader.
In accordance with the inventive steps, to correlate the NMPRTase inhibition property with cell growth inhibition, the ability of these compounds to inhibit the growth of a glioma derived cell line U87 was tested, which has elevated levels of PBEF1.

T1 sequence (P43490 whole entry): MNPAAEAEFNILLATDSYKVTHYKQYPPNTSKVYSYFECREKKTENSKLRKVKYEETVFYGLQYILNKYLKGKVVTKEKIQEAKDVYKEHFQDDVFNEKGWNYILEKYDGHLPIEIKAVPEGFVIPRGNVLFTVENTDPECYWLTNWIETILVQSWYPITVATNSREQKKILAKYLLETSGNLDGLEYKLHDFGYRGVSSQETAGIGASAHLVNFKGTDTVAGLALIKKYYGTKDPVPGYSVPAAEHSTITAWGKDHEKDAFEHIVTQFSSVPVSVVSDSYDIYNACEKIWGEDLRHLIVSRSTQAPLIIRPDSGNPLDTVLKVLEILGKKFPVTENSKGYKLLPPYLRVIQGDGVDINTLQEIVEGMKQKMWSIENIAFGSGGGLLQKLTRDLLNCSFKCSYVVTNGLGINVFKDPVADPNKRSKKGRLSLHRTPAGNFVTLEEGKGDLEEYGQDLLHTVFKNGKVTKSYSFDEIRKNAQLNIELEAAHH

Take `O=C(/C=C/c1cccnc1)NCCCCC1CCN(C(=O)c2ccccc2)CC1` [FK866, reference compound]: the “Biochemical energy of binding” value at NMPRTase [1] was -9.25 kcal/mol. Also, the “Inhibition of NMPRTase activity” value on NMPRTase [2] is on record as “inhibited efficiently”. The IC50 in test [3] was determined as 170 µM.

Turning to `NC(=O)c1cccnc1` [Nicotinamide], the IC50 in test [3] is more than 500 µM.

Regarding `Nc1c(-c2ccc3ccccc3n2)c2ccc([N+](=O)[O-])cc2c(=O)n1Cc1ccccc1` [Compound 5, 3-amino-2-benzyl-7-nitro-4-(2-quinolyl)-1,2-dihydroisoquinolin-1-one], the “Inhibition of NMPRTase activity” value on NMPRTase [2] is given as “inhibited NMPRTase activity”. In test [3], half-maximal inhibition (IC50) was put at 325 µM.

`CCOC(=O)c1nn(-c2ccccc2)c(=O)c2c(N)c(C#N)c(-c3ccco3)cc12` [Compound 2, Ethyl-5-amino-6-cyano-7-(2-furyl)-4-oxo-3-phenyl-3,4-dihydro-1-phthalazinecarboxylate] gave an IC50 in test [3] of more than 500 µM.

In the case of `CC12OC(c3ccccc3)=CC(c3ccccc3)=C1C(c1ccccc1)=CC2=O` (centres unmarked) [Compound 4, 7a-methyl-2,4,5-triphenyl-7,7a-dihydrocyclopenta[b]pyran-7-one], the “Inhibition of NMPRTase activity” value on NMPRTase [2] is recorded as “inhibited NMPRTase activity”. The same molecule came in with an IC50 in test [3] of more than 500 µM.

Regarding `Cc1nn(-c2ccccc2)nc1CNC(=O)C1=Cc2ccccc2OC1` [Compound 6, N-[(5-methyl-2-phenyl-2H-1,2,3-triazol-4-yl)methyl]-2H-chromene-3-carboxamide], the IC50 in test [3] is more than 500 µM.

`O=C1c2cc(S(=O)(=O)[O-])ccc2-c2ccc(S(=O)(=O)[O-])cc21.[K+].[K+]` [Compound 1, Dipotassium 9-oxo-9H-fluorene-2,7-disulfonate]: the “Inhibition of NMPRTase activity” value on NMPRTase [2] is reported as “did not inhibit NMPRTase activity”. In test [3], this molecule gave an IC50 of 335 µM.

`CC(=O)c1cc(-n2nc3ccccc3n2)c(O)c(-n2nc3ccccc3n2)c1O` [Compound 3, 1,[3,5-Di(2H-1,2,3-benzotriazol-2-yl)-2,4-dihydroxyphenyl]ethan-1-one] displayed an IC50 in test [3] of more than 500 µM.

In test [3], `O=C(O)c1cccnc1` [Niacin, reference compound] gave an IC50 of more than 500 µM.
